For data set [1], the system named is Human peripheral blood CD4+ T cells. The experiment in a line: Human CD4+ T cells under Th1 polarizing conditions (flow cytometry). It is filed as cell-based. Particulars: increasing NAD+. The method, then: The inventors next investigated whether NAD^− regulates CD4^+ T cell differentiation in Th1 polarizing conditions. Isolated naïve CD4^+ T cells were cultured with anti-CD3/CD28 antibodies in presence of recombinant IL-12 and IL-2 cytokines and anti-IL4 antibody. […] In contrast to Th0 polarizing conditions, NAD^+ induced a robust IL-10 secretion (>3500 pg/ml) in Th1 cytokine environment (FIG. 1A). Furthermore, pro-inflammatory cytokines such as TNF-α and IL-6 were reduced by NAD^+ (FIG. 7C). […] Furthermore, the study tested whether NAD^+ promoted the shift of human CD4^+ T helper cells in Th1 polarizing conditions towards IL-10 cytokine production. Human peripheral blood CD4^| T cells were activated with anti-CD3/CD28 antibodies under Th1 polarizing conditions (recombinant IL-12 and IL-2 cytokines and anti-IL4 antibody) with increasing concentrations of NAD+. After 96 hours of culture, CD4^+IL-10^+IFNγ^+ cell frequency was assessed by flow cytometry analysis. […]
(§1) All recombinant cytokines and antibodies were purchased from EBIOSCIENCE except recombinant TGF-β cytokine (R&D SYSTEMS, Minneapolis, Minn.). After 96 hrs of culture supernatants and cells were collected and analyzed by ELISA and flow cytometry, respectively.

The subject of data set [2] is naïve CD4+ T cells. Briefly: Naïve CD4+ T cell differentiation without polarizing cytokines (Th0). It counts as cell-based, mouse. The protocol:
It has been shown that NAD^+ can regulate T cell activation^36-38, but its role in T cell development was not shown. In this study, it was tested whether NAD^+ was able to regulate T cell differentiation in vitro. Naïve CD4^+ T cells were isolated from spleen of DBA mice and cultured for 96 hrs in presence of increasing NAD^+ concentration and in presence of recombinant IL-2 and stimulated with anti-CD3/CD28 antibodies. Cytokine expression and secretion were analyzed by flow cytometry and ELISA, respectively. […] Of note, the production of pro-inflammatory cytokines such as IL-6 and TNF-α or the immunosuppressive cytokine IL-10 were inhibited by NAD^| (FIG. 7A).
(§2) Single-cell leukocyte suspensions were obtained from spleens from 8-10 week old DBA mice and CD4^− T cells were isolated by negative selection using a CD4^+ T cell isolation kit (MILTENYI BIOTEC, Bergisch Gladbach, Germany). Cells were further sorted using α-CD4-PE (EBIOSCIENCE, San Diego, Calif.) and purities of CD4^+ T cells after isolation were >98%.
as §1
(§3) Fluorescently labeled anti-mouse α-CD4 (GK1.5), α-CD25 (PC61), α-IFN-γ (XMG1.2) and unlabeled α-CD16/CD32 (2.4G2) antibodies were obtained from BD BIOSCIENCES (San Jose, Calif.). Fluorescently labeled anti-mouse α-IL-4 (FJK-16s), α-IL-10 (JES5-16E3), α-IL-17A (eBio17B7), and anti-TGFβ (TW7-16B4) were obtained from eBIOSCIENCE (San Diego, Calif.). Intracellular staining for IL-4, IL-10, IL-17A, IFNγ and TGFβ was performed according to manufacturers' protocols. Splenocytes were re-stimulated in complete media (RPMI media containing 10% FCS, 1% L-Glutamine, 1% Penicillin/Streptomycin; all Bio Whittaker, Walkersville, Md.) for 4 hours at 37° C. with ionomycin, phorbol 12-myristate 13-acetate and Brefelding A (EBIOSCIENCE). Cells were fixed and permeabilized using CYTOFIX/CYTOPERM solution (BD BIOSCIENCES). Flow cytometry measurements of single-cell suspensions were performed on a FACSCalibur using standard procedures and data were analyzed using FLOWJO software (TREE STAR, Ashland, Oreg.).

In data set [3] the test system is naïve CD4+ T cells. The experiment in a line: Naïve CD4+ T cell differentiation under Th17 polarizing conditions. It is filed as cell-based, mouse.
Text: To elucidate the role of NAD^+ on CD4^− T cell differentiations in Th17 polarizing conditions, isolated naïve CD4^+ T cells were activated with anti-CD3/CD28 antibodies in the presence of recombinant TGFβ, IL-6 and anti-IL-4, anti-IL-12, and anti-IFNγ antibodies. […] Of note, expression of the pro-inflammatory cytokine TNF-α was inhibited in presence of NAD^+ (FIG. 1E).
as §2, §1, §3

The next data set relates to Human nTregs. Briefly: Human nTreg conversion into IL-17A producing cells. It counts as cell-based. The method, then: Several discrepancies have been reported for mechanisms promoting Th17 cell development in mice and human^15. […] In addition, it has been shown that IL-2 inhibits Th17 development^16. In contrast, human Th17 differentiation requires IL-1β and IL-6 and can be inhibited by TFG-β and IL-2^34. […] Therefore, it was tested whether NAD^+ was a universal molecule that was able to enhance nTreg conversion into Th17 cells in human and mice as well. Human nTregs were isolated and cultured in presence of increasing NAD^− concentrations and IL-2. […] Of note, human nTregs conversion into IL-17A^+ producing cells remained CD4^+CD25^+.
For isolation of human Treg cells, peripheral blood mononuclear cells were obtained from young healthy volunteers using density gradient centrifugation with Ficoll-Paque (STEMCELL TECHNOLOGIES, Vancouver, BC, Canada). Non-CD4^+ T cells were then depleted using biotin-conjugated monoclonal anti-human antibodies against CD8, CD14, CD15, CD16, CD19, CD36, CD56, CD123, TCRγ/δ, CD235a (Glycophorin A) and anti-biotin magnetic beads (Miltenyi Biotec). […]
For cultivation of human Treg cells, recombinant human IL-2 (EBIOSCIENCE) and superparamagnetic beads coupled with human α-CD3 and α-CD28 (LIFE TECHNOLOGIES, Carlsbad, Calif.) were used. Cells were cultured during 10 days and analyzed by flow cytometry.

A further data set relates to C57BL/6 mice. Particulars: mouse, in vivo, ip.

Experimental for C57BL/6 mice: C57BL/6 mice (8-10 weeks old) were daily administered 60 mg of NAD^+ or a placebo solution (PBS) intraperitoneally during 4 days. Blood and spleen were collected after 4 days of treatment. Absolute number of lymphocytes in the blood was determined using a hemocytometer (model 850 FS, Drew Scientific, Miami lakes, Fla.). To determine absolute lymphocyte number in spleens, cells were isolated and counted with a hemocytometer then stained with antibodies anti-CD4^+, CD3^+ or B220^+ and percentage was determined by flow analysis.

Take `NC(=O)c1ccc[n+]([C@@H]2O[C@H](COP(=O)([O-])OP(=O)(O)OC[C@H]3O[C@@H](n4cnc5c(N)ncnc54)[C@H](O)[C@@H]3O)[C@@H](O)[C@H]2O)c1` [NAD+, nicotinamide adenine dinucleotide]: the IL-17A entry in data set [1] is “moderate increase”. In data set [1] (flow cytometry), the “IL-10 cytokine production by CD4+IFN-γ producing cells” value is “robust IL-10 cytokine production”. In the data set with naïve CD4+ T cells [2] (Th0, 96 hrs, ELISA), the IFNγ cytokine production entry is given as “promote a robust”, the IL-4 cytokine production entry was “inhibit”, the IL-6 production result is on record as “inhibited” and the IL-10 production entry is recorded as “inhibited”. Further, in the data set with naïve CD4+ T cells [2] (Th0, 96 hrs, ELISA), the IL-17 cytokine production result was “promote a robust” and the TNF-α production result is “inhibited”. In addition, in the data set with naïve CD4+ T cells [2] (Th0, flow cytometry), the “CD4+IFNγ+ cell frequency” value was “increased”, the “CD4+IL-4+ cell frequency” value is “reduced” and the “CD4+IL-17+ cell frequency” value was “increased”. For the same compound, the TGFβ production result in the data set on naïve CD4+ T cells [2] (Th0 polarizing conditions) was “no TGFβ production”. Also, in the data set with naïve CD4+ T cells [3] (ELISA), the IL-10 cytokine production entry was “reduced”, the IL-17 cytokine production entry is listed as “did not affect” and the TNF-α expression entry was “inhibited”. In addition, the “CD4+IL-17A+ cells” value in the data set with naïve CD4+ T cells [3] (flow cytometry) is “no changes”. The IL-17A cytokine production entry with Human nTregs (increasing NAD+ and IL-2, ELISA) is given as “enhance”. The “number of IL-17A+ cells” value with Human nTregs (increasing NAD+ and IL-2, flow cytometry) is given as “increased”. Further, the “absolute number of circulating lymphocytes in the blood and spleens” value with C57BL/6 mice is recorded as “did not affect”.

The record behind these values is patent US20160067272A1, “METHODS FOR TREATING IMMUNE DISEASES” (priority 2013, published 2016).
